This passage reports IC50 results from patent US5387610A, “Peptide derivatives of collagenase inhibitor” (Research Corporation Technologies, Inc., priority 1992, dated 1995).

The term IC50 denotes the midpoint of a concentration-inhibition curve. Read a low IC50 as inhibition by little substance.

The target of test [1] is T1, Porcine synovial collagenase (Sus scrofa, UniProt P21692).
T1 construct: purified porcine synovial collagenase; from tissue; host or cells: pig synovium (synovial enzyme, purified)
T1 sequence (P21692 100-469): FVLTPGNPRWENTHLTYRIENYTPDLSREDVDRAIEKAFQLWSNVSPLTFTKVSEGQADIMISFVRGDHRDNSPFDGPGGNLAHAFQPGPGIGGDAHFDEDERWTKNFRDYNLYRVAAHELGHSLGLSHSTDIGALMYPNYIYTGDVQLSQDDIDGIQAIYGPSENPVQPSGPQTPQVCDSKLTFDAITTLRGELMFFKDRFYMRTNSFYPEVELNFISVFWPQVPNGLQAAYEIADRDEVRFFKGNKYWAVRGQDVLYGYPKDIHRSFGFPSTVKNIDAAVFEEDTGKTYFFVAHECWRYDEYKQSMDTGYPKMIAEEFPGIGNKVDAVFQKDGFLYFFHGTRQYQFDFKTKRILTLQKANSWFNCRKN
Kind of test: Porcine synovial collagenase activity with type I (calf skin) collagen, gel densitometry (PSC/CSC). The following applies: acid-soluble calf skin collagen 0.8 μM, 35° C., pH 7.7; a range means 50% inhibition lay between the values; successive lines per compound = diastereomers, higher C18 mobility first. The format is biochemical. On the procedure: Porcine synovial collagenase activity (PSC) was measured with type I collagen essentially as described by Darlak et al. (1990). Varying amounts of inhibitor were added to the acid-soluble calf skin collagen (0.8 μM) at 35° C. in 0.05M tris-HCl, 0.2M NaCl, 5 mM CaCl2, 0.25M glucose, pH 7.7. Collagen degradation was initiated by adding purified porcine synovial collagenase and the reactions were stopped by the addition of an equal volume of sample dilution buffer (Laemmli, 1970) followed by boiling for 2-3 min. Undegraded collagen was resolved from its degradation products by polyacrylamide slab gel electrophoresis as described by Laemmli (1970). The gels were fixed in isopropanol/acetic acid/water (100:40:300 v/v) and then stained with 1% Coomassie Blue R-250 in fixing solution. After destaining, the percentage of α1 chain converted to the corresponding TC fragment was estimated by densitometry using a Bio-Rad model 610 video densitometer. IC50 values were estimated from the dependence of the percent of collagen degraded on inhibitor concentration.

Test [2] concerns the target T2, pig synovial collagenase (Sus scrofa, UniProt P21692).
T2 construct: purified porcine synovial collagenase; from tissue; host or cells: pig synovium (synovial enzyme, purified)
T2 sequence (P21692 100-469): T1 sequence (P21692 100-469)
The test is described as follows: Pig synovial collagenase with fluorogenic substrate FS-7 (PSC/FS-7). The format is biochemical. To be noted: substrate Dnp-Pro-Leu-Gly-Leu-Trp-Ala-D-Arg-NH2; successive lines per compound = diastereomers, higher C18 mobility first. Here is the method:
[The source words this procedure for another target and reports this target under the same test.] Recombinant human fibroblast collagenase (rHFC) and porcine synovial gelatinase (PSG) were assayed at 37° C. by the procedure of Stack and Gray (1989). The fluorogenic metalloproteinase substrate Dnp-Pro-Leu-Gly-Leu-Trp-Ala-D-Arg-NH2 was dissolved at an initial concentration of 10 μM in 0.05M tris-HCl, 0.2M NaCl, 5 mM CaCl2, pH 7.7. Hydrolysis of the substrate at the Gly-Leu bond results in an increase in fluorescence that was monitored using an SLM-500C spectrofluorometer with excitation at 280 nm and emission at 346 nm. The reaction was initiated by addition of the enzyme; after determining the initial rate of substrate hydrolysis an aliquot of inhibitor was added and the inhibited rate redetermined. For lower affinity inhibitors (IC50>>[E0 ], where E0 is the enzyme concentration), inhibitor potencies were determined from plots of log (A0 /Ai-1) vs. log [Inhibitor], where A0 is the activity measured in the absence of inhibitor and Ai is that measured in the presence of inhibitor at concentration i (Ambrose et al., 1950). For high affinity inhibitors (IC50 =[E0 ]) only an upper limit of inhibitor potency could be estimated (Dixon and Webb, 1979).

Values joined by “and” are separate entries in the source; they are usually repeats but may differ in a detail not shown here. Equal entries are not always repeated.

For “H4[ONHCO]--DL--Leu Hal Ala--NH2 [Compound 5]”, the IC50 in test [1] is 25 to 30 µM; in test [2], 21 µM.

Turning to “H4[ONHCO]--DL--Leu Phe--NH2 [Compound 1]”, the IC50 was determined as 250 µM in test [1] and 700 µM in test [2].

As for `CC(C)CC(C(=O)N[C@@H](Cc1ccccc1)C(=O)N[C@@H](C)C(N)=O)C(C)C(=O)NO` (single isomer, unassigned) [Compound 16, H4[ONHCOCH(CH3)]--DL--Leu Phe Ala--NH2], the IC50 in test [1] was 1 µM and > 3 µM.

Turning to “H4[ONHCO]--DL--Leu I'-Hal--NH2 [Compound 7]”, the 50% inhibitory concentration (IC50) in test [1] was 300 to 500 µM; in test [2] it was 280 µM.

“HO--NH--CO--CH2 --CH(CH2 CH(CH3)2 --CO--Nal--Pro--NH2 [Compound 12]”: the figures for the half-maximal inhibitory concentration (IC50) in test [1] and in test [2] were 1 to 3 µM and 1.1 µM, respectively.

Consider “H4[ONHCO]--DL--Leu Trp--NH2 [Compound 2]”, for which the IC50 in test [1] was 180 µM; in test [2] it was 370 µM.
